Results published in PubChem BioAssay AID248 (DTP/NCI, 2004).
Values joined by “and” are separate entries in the source; they are usually repeats but may differ in a detail not shown here. Equal entries are not always repeated. Toxic doses and inconclusive results are not listed. Rule as the data show it: active = T/C of 150% or more; inactive = T/C below 125%.

Test system: L1210 leukemia ip in BDF1 mice, survival T/C
Assay: NCI In Vivo Anticancer Drug Screen. Data for tumor model L1210 Leukemia (intraperitoneal) in B6D2F1 (BDF1) mice
Settings: endpoint: mean survival time, higher = longer survival
Summary of the method: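 Antitumor effect is assessed in tumor-bearing animals. Survival in the compound arm is compared with a vehicle-dosed control arm and expressed as their quotient.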

[1] = dose: 75.0 mg/kg/injection, schedule: Q01DX001 (ip), vehicle: carboxymethylcellulose (CMC)
[2] = dose: 150.0 mg/kg/injection, schedule: Q01DX001 (ip), vehicle: carboxymethylcellulose (CMC)
[3] = dose: 300.0 mg/kg/injection, schedule: Q01DX001 (ip), vehicle: carboxymethylcellulose (CMC)
[4] = dose: 100.0 mg/kg/injection, schedule: Q04DX003 (ip), vehicle: saline with Tween-80
[5] = dose: 200.0 mg/kg/injection, schedule: Q04DX003 (ip), vehicle: saline with Tween-80
[6] = dose: 400.0 mg/kg/injection, schedule: Q04DX003 (ip), vehicle: saline with Tween-80
[7] = dose: 100.0 mg/kg/injection, schedule: Q01DX009 (ip), vehicle: saline
[8] = dose: 100.0 mg/kg/injection, schedule: Q04DX003 (ip), vehicle: saline
[9] = dose: 200.0 mg/kg/injection, schedule: Q01DX009 (ip), vehicle: saline
[10] = dose: 200.0 mg/kg/injection, schedule: Q04DX003 (ip), vehicle: saline
[11] = dose: 400.0 mg/kg/injection, schedule: Q01DX009 (ip), vehicle: saline
[12] = dose: 12.5 mg/kg/injection, schedule: Q01DX009 (ip), vehicle: Klucel (hydroxypropylcellulose) (HPC)
[13] = dose: 25.0 mg/kg/injection, schedule: Q01DX009 (ip), vehicle: Klucel (hydroxypropylcellulose) (HPC)
[14] = dose: 400.0 mg/kg/injection, schedule: Q04DX003 (ip), vehicle: saline
[15] = dose: 100.0 mg/kg/injection, schedule: Q01DX001 (ip), vehicle: saline
[16] = dose: 200.0 mg/kg/injection, schedule: Q01DX001 (ip), vehicle: saline
[17] = dose: 400.0 mg/kg/injection, schedule: Q01DX001 (ip), vehicle: saline

Measured: T/C

CCC(CC)NCC(C)OC(=O)c1ccc([N+](=O)[O-])cc1 (centres undefined)
inactive: [1] 96 % of control | [2] 105 % of control | [3] 97 % of control

O=[N+]([O-])c1ccc(CSCc2ccccc2)cc1
inactive: dose: 50.0 mg/kg/injection, schedule: Q01DX001 (ip), vehicle: carboxymethylcellulose (CMC) 102 % of control | dose: 100.0 mg/kg/injection, schedule: Q01DX001 (ip), vehicle: carboxymethylcellulose (CMC) 102 % of control | dose: 200.0 mg/kg/injection, schedule: Q01DX001 (ip), vehicle: carboxymethylcellulose (CMC) 109 % of control | dose: 400.0 mg/kg/injection, schedule: Q01DX001 (ip), vehicle: carboxymethylcellulose (CMC) 98 % of control

CNC(=O)O/N=C(/SC)C(C)C
inactive: dose: 5.0 mg/kg/injection, schedule: Q01DX001 (ip), vehicle: saline 100 % of control | dose: 10.0 mg/kg/injection, schedule: Q01DX001 (ip), vehicle: saline 100 % of control

CCCCCCCCCCCCCCn1cnc2c(N)ncnc21
inactive: dose: 12.5 mg/kg/injection, schedule: Q01DX005 (ip), vehicle: other 101 % of control | dose: 25.0 mg/kg/injection, schedule: Q01DX005 (ip), vehicle: other 111 % of control | dose: 50.0 mg/kg/injection, schedule: Q01DX005 (ip), vehicle: other 101 % of control | dose: 100.0 mg/kg/injection, schedule: Q01DX005 (ip), vehicle: other 106 % of control

Brc1ccc(-c2nc3ccccc3[nH]2)cc1
inactive: dose: 100.0 mg/kg/injection, schedule: Q01DX009 (ip), vehicle: saline with Tween-80 93 % of control | [4] 101 % of control | dose: 200.0 mg/kg/injection, schedule: Q01DX009 (ip), vehicle: saline with Tween-80 93 % of control | [5] 104 % of control | dose: 400.0 mg/kg/injection, schedule: Q01DX009 (ip), vehicle: saline with Tween-80 93 % of control | [6] 101 % of control

CC(=O)CCCc1ccccc1
inactive: [7] 92 % of control | [8] 100 % of control | [9] 98 % of control | [10] 100 % of control | [11] 104 % of control

C[N+]1(C)CCNC(=O)CC1
inactive: dose: 75.0 mg/kg/injection, schedule: Q01DX001 (ip), vehicle: saline 105 % of control | dose: 150.0 mg/kg/injection, schedule: Q01DX001 (ip), vehicle: saline 94 % of control | dose: 300.0 mg/kg/injection, schedule: Q01DX001 (ip), vehicle: saline 105 % of control

NS(=O)(=O)c1ccc(NC2OCC(O)C(O)C2O)cc1 (centres undefined)
inactive: [4] 98 % of control | [5] 100 % of control | [6] 102 % of control

Cc1cc(C(O)c2ccccn2)c2ccccc2n1 (centres undefined)
inactive: dose: 50.0 mg/kg/injection, schedule: Q01DX009 (ip), vehicle: Klucel (hydroxypropylcellulose) (HPC) 102 % of control | dose: 100.0 mg/kg/injection, schedule: Q01DX001 (ip), vehicle: Klucel (hydroxypropylcellulose) (HPC) 106 % of control | dose: 100.0 mg/kg/injection, schedule: Q01DX009 (ip), vehicle: Klucel (hydroxypropylcellulose) (HPC) 96 % of control | dose: 200.0 mg/kg/injection, schedule: Q01DX001 (ip), vehicle: Klucel (hydroxypropylcellulose) (HPC) 96 % of control

Nc1cc[n+](-c2ccc([N+](=O)[O-])cc2[N+](=O)[O-])cc1
inactive: [12] 98 % of control | [13] 100 % of control

c1ccc2c(c1)CCc1ccccc1CN(CCNC1=NCCN1)C2
inactive: dose: 6.25 mg/kg/injection, schedule: Q01DX009 (ip), vehicle: Klucel (hydroxypropylcellulose) (HPC) 96 % of control | [12] 91 % of control | [13] 91 % of control

CCCCCCCC(C)NCCO (centres undefined)
inactive: [1] 98 % of control

Nc1nc(N)c2cc(CNc3ccc(Cl)c(C(=O)NC(CC(=O)O)C(=O)O)c3)cnc2n1 (centres undefined)
inactive: [7] 95 % of control | [8] 106 % of control | [9] 94 % of control | [10] 93 % of control | [11] 89 % of control | [14] 97 % of control

O=C1Nc2ccccc2C1=Nc1ccc(F)cc1
inactive: [15] 96 % of control | [16] 92 % of control | [17] 94 % of control

Cc1nnc2c([N+](=O)[O-])cccn12
inactive: [15] 98 % of control | [16] 103 % of control

CC(=O)OC1CCC2(C)C3=C(CCC2C1(C)C)C1(C)CCC(C(C)CCC2NC2(C)C)C1(C)CC3 (centres undefined)
inactive: dose: 100.0 mg/kg/injection, schedule: Q04DX003 (sc), vehicle: steriod suspending solution 105 % of control | dose: 200.0 mg/kg/injection, schedule: Q04DX003 (sc), vehicle: steriod suspending solution 101 % of control | dose: 400.0 mg/kg/injection, schedule: Q04DX003 (sc), vehicle: steriod suspending solution 105 % of control

CN(C)Nc1ncnc2nc[nH]c12
inactive: dose: 12.5 mg/kg/injection, schedule: Q01DX Z (ip), vehicle: carboxymethylcellulose (CMC) 98 % of control | dose: 25.0 mg/kg/injection, schedule: Q01DX Z (ip), vehicle: carboxymethylcellulose (CMC) 104 % of control | dose: 50.0 mg/kg/injection, schedule: Q01DX Z (ip), vehicle: carboxymethylcellulose (CMC) 106 % of control and 115 % of control | [1] 102 % of control | dose: 100.0 mg/kg/injection, schedule: Q01DX Z (ip), vehicle: carboxymethylcellulose (CMC) 114 % of control and 118 % of control | [2] 102 % of control | [3] 110 % of control

O=C(c1ccccn1)N1CCOCC1
inactive: [15] 101 % of control | [7] 98 % of control and 109 % of control | dose: 100.0 mg/kg/injection, schedule: Q04DX002 (ip), vehicle: saline 96 % of control and 116 % of control | [8] 98 % of control | [16] 105 % of control | [9] 103 % of control and 104 % of control | dose: 200.0 mg/kg/injection, schedule: Q04DX002 (ip), vehicle: saline 95 % of control and 97 % of control | [10] 98 % of control | [17] 97 % of control | [11] 95 % of control and 103 % of control | dose: 400.0 mg/kg/injection, schedule: Q04DX002 (ip), vehicle: saline 96 % of control and 103 % of control | [14] 107 % of control

N#CCCC1C2CCC(C2)C1C#N (centres undefined)
inactive: dose: 3.0 mg/kg/injection, schedule: Q01DX009 (ip), vehicle: Klucel (hydroxypropylcellulose) (HPC) 96 % of control | dose: 3.0 mg/kg/injection, schedule: Q04DX003 (ip), vehicle: Klucel (hydroxypropylcellulose) (HPC) 96 % of control | dose: 6.0 mg/kg/injection, schedule: Q01DX009 (ip), vehicle: Klucel (hydroxypropylcellulose) (HPC) 96 % of control | dose: 6.0 mg/kg/injection, schedule: Q04DX003 (ip), vehicle: Klucel (hydroxypropylcellulose) (HPC) 98 % of control | dose: 12.0 mg/kg/injection, schedule: Q01DX009 (ip), vehicle: Klucel (hydroxypropylcellulose) (HPC) 98 % of control | dose: 12.0 mg/kg/injection, schedule: Q04DX003 (ip), vehicle: Klucel (hydroxypropylcellulose) (HPC) 98 % of control | dose: 12.5 mg/kg/injection, schedule: Q04DX003 (ip), vehicle: Klucel (hydroxypropylcellulose) (HPC) 105 % of control

CCCCCCCCCCCCCCCCCC[n+]1ccc(C(N)=O)cc1
inactive: [8] 91 % of control

CC(=O)OCC1OC(OC(C)=O)C(OC(C)=O)C1OC(C)=O (centres undefined)
inactive: [15] 107 % of control | [16] 106 % of control | [17] 102 % of control
